From US20170189547A1, “Biodegradable Drug Delivery Composition” (Durect Corporation, priority 2010, published 2017) come the findings set out here.

The target of the series is T1, hGH (Homo sapiens, UniProt P01241).
T1 construct: purchased Hospira, Adelaide
The experiment in a line: Complexation capability of hGH with anionic and cationic agents (non-complexed hGH in supernatant by RPLC). Particulars: for Observation: hGH with complexing agent; for Supernatant Analysis (% of hGH): non-complexed hGH by RPLC. It is filed as physicochemical. On the procedure:
Additional complexation agents were tested in vitro for their ability to precipitate rhGH.
Human growth hormone (purchased from Hospira, Adelaide) was complexed with poly lysine, poly arginine, poly adenylic acid (poly-A), or poly thymine (poly-T) in appropriate ratios (as specified in Table 28) to form suspensions. Supernatant was separated from precipitate (ppt) by centrifugation of the complexed material suspensions. The supernatant solution was analyzed for non-complexed hGH by reverse phase liquid chromatography (RPLC).

T1 sequence (P01241 27-217): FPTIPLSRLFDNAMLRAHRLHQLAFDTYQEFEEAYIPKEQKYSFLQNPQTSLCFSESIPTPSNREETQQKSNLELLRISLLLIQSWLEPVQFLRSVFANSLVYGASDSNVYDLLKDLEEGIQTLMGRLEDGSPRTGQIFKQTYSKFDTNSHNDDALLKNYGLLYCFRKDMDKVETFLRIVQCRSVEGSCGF

As for Hyaluronic Acid, under “concentration ratio 1:2”, the Observation result is “No ppt” and the “Supernatant Analysis (% of hGH)” value is given as >90 % of hGH.
Consider Poly-Lysine, for which, for the setting “concentration ratio 1:10”, the Observation entry is reported as “Cloudy ppt” and the “Supernatant Analysis (% of hGH)” value is 9.5 % of hGH.
